Laboratory results: a compilation of properties of binary mixtures (doi:10.1016/j.fluid.2020.112621)

Experiment: xn = mol fraction of the nth substance listed
Conditions: 101 kPa

CC(=O)O.CC(=O)[O-].CC[NH+](CC)CCO + CCCC[n+]1ccn(C)c1.COP(=O)([O-])OC
viscosity [mPa·s]
Conditions	x1 = 0.0748	x1 = 0.3316	x1 = 0.4263	x1 = 0.5275	x1 = 0.6343	x1 = 0.7493	x1 = 0.8567	x1 = 1
278.15 K	2020	–	363	–	329	314	310	340
283.15 K	1280.5	315	254.3	234.7	229	–	210	227
288.15 K	840	224.3	183.7	–	164	157.9	146.3	156.1
293.15 K	–	164.3	135.3	124	120.6	–	104.7	110.4
298.15 K	396	123.7	102.2	–	–	88	–	80.2
303.15 K	–	95.2	79	72.4	70.3	67.9	57.8	–
308.15 K	208	–	62.2	57	55.2	–	44.3	45.3
313.15 K	155.8	58.3	48.55	–	–	41.14	34.65	35.12
318.15 K	119.1	48.01	40.43	36.97	35.71	34.54	–	27.71
323.15 K	92.7	39.18	33.11	–	–	28.27	–	22.22
328.15 K	–	32.29	–	25.04	24.08	–	18.26	18.08
333.15 K	58.8	24.59	20.72	18.82	–	–	15.16	14.9
338.15 K	–	22.48	19.2	17.53	16.79	16.24	12.72	12.45
343.15 K	39.38	18.97	16.24	14.82	14.16	–	10.79	10.49
348.15 K	32.81	16.13	13.83	12.6	–	11.59	9.24	–
353.15 K	27.63	12.97	11.07	10.04	9.54	9.16	7.98	7.67
358.15 K	23.49	11.89	10.22	–	8.82	8.46	–	–
363.15 K	20.16	10.32	8.87	8.06	7.63	7.29	6.09	–
368.15 K	17.45	9.01	7.75	–	–	6.33	5.37	5.09
373.15 K	15.23	7.79	6.7	6.06	5.71	5.43	4.76	4.5
